Source: patent US9987287B2, “Orally disintegrating solid dosage unit containing an estetrol component” (Donesta Bioscience B.V., priority 2013, dated 2018)

Key:
[1] = Dissolution into saliva, anhydrous vs monohydrate; assay type: physicochemical; details: compared with estetrol monohydrate
[2] = Randomized, open-label, single dose, two-period, cross-over pharmacokinetic study, sublingual vs oral estetrol; assay type: in vivo, healthy female postmenopausal volunteers; details: 10 mg single dose
Experimental: A randomized, open-label, single dose, two-period, cross-over, pharmacokinetic study is conducted to compare sublingual bioavailability of 10 mg estetrol administered in two 100 mg tablets (each containing 5 mg estetrol and having the same composition as the tablets described in Example 7) with oral availability of estetrol contained in a 83 mg tablet containing 10 mg estetrol. These tablets are administered sublingually and orally to healthy female postmenopausal volunteers under fasting conditions.
Twelve healthy postmenopausal female subjects are selected on the basis of the following criteria: Caucasian race, age of 45-65 years (inclusive), nonsmokers or past smokers (at least 6 months before dosing), body-mass index (BMI)=18.5 to 30 kg/m^2 (inclusive at the time of the screening).
At the start of the first and the second period of the study, between 07:00 am and 07:28 am, 6 subjects receive a single dose of the sublingual formulation of estetrol by administering two estetrol tablets (tablet weight 100 mg; 5 mg estetrol each) and 6 subjects receive a single oral dose of the oral estetrol formulation by administering one estetrol tablet (tablet weight 83 mg; 10 mg estetrol), ingested together with 200 ml water.
Subjects are required to fast for at least 10 hours prior to tablet administration and for at least 4 hours after administration. Drinking of water or beverages is not permitted within 1 hour before the drug administration. Subjects receive 200 ml of water 1 hour prior to and 2 hours after tablet administration. Subjects are free to drink water and fruit tea from 4 hours following the tablet administration. Standardized meals are provided 10.5 hours before and 4, 6, 9, and 13 hours after tablet administration.
The estetrol concentration in the collected blood samples is determined by means of HPLC/MS/MS. The concentrations of glucuronided estetrol (D-ring) in the urine samples is also determined with the help of HPLC/MS/MS.

estrogen receptors = details: in vitro; cited from earlier work
[3] = target: T1, sex hormone binding globulin (SHBG) (Homo sapiens, UniProt P04278); details: cited from earlier work
T1 sequence (P04278 30-402): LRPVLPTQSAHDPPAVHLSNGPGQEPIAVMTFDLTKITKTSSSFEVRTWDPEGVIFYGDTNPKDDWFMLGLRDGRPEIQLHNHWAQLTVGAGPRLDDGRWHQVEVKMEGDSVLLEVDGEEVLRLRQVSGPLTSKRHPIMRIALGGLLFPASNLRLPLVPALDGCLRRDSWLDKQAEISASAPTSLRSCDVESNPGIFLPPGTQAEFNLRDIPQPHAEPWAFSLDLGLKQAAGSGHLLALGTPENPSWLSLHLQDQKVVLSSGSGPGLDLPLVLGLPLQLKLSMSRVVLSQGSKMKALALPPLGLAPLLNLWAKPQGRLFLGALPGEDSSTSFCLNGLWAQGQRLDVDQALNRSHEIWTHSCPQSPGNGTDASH

[4] = system: human breast cancer cells; details: in the presence of 17β-estradiol, in vitro; cited from earlier work
[5] = system: DMBA mammary tumour model; details: extent and dose level similar to tamoxifen and to ovariectomy; cited from earlier work
[6] = humans; cited from earlier work
production of SHBG = details: in vitro; cited from earlier work
[7] = dose-dependent; cited from earlier work

| SMILES | Rate of dissolution into saliva [1] | Hygroscopicity | Bioavailability of sublingually administered estetrol versus orally administered estetrol ([2]; fasting, sublingual two 100 mg tablets (5 mg each, composition of Example 7) vs oral 83 mg tablet) | Onset of bioavailability, sublingual versus oral ([2]; fasting, sublingual two 100 mg tablets vs oral 83 mg tablet) | Impact on a liver function parameter, sublingual ([2]; sublingual tablets vs oral tablet) | Binding selectivity to estrogen receptors (estrogen receptors) | Binding to SHBG [3] | Effect in human breast cancer cells [4] | Tumour development in DMBA mammary tumour model [5] | Oral bioavailability [6] | Terminal elimination half-life [6] | Stimulation of SHBG production (production of SHBG) | Estrogenic effects in rat models [7] |
| --- | --- | --- | --- | --- | --- | --- | --- | --- | --- | --- | --- | --- | --- |
| C[C@]12CC[C@@H]3c4ccc(O)cc4CC[C@H]3[C@@H]1[C@@H](O)[C@@H](O)[C@@H]2O [Anhydrous estetrol, estetrol] | dissolves more rapidly into saliva than estetrol monohydrate | highly hygroscopic |  |  |  |  |  |  |  |  |  |  |  |
| C[C@]12CC[C@@H]3c4ccc(O)cc4CC[C@H]3[C@@H]1[C@@H](O)[C@@H](O)[C@@H]2O [estetrol, 1,3,5 (10)-estratrien-3,15α,16α,17β-tetrol] |  |  | comparable or even superior to orally administered estetrol | earlier bioavailability compared to orally administered estetrol | less impact on a liver function parameter | binds highly selective to the estrogen receptors with preference for the ERα form of the receptor | does not bind | anti-estrogenic effect | prevented tumour development | high and dose-proportional | about 28 hours | does not stimulate the production of SHBG | exhibited estrogenic effects on the vagina, the uterus (both myometrium and endometrium), body weight, bone mass, bone strength, hot flushes and on ovulation (inhibition) |
